Results as given in ChEMBL document CHEMBL1201862, “PubChem BioAssay data set” (2004).
Active and inactive are the calls of the source.

Tests used:
Streptococcus = assay: GAS UMAA2166 growth inhibition – luminescence, BacTiterGlo, counter-screen for streptokinase expression inhibitor project, dose response (AID 1915); format: functional, organism-based;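 note: potency for reduction of bacterial viability or growth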
BJ [1] = assay: growth inhibition of engineered Ras-driven BJ cells – cell-based, alamar blue fluorescence, cherrypicked samples, dose response (AID 2631); format: functional; conditions: Homo sapiens;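 note: confirmatory dose-response assay in RAS-dependent BJ fibroblasts engineered with TERT, LT and ST, with cytotoxicity read by fluorescence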
Streptokinase A = molecular target: T1, Streptokinase A (Streptococcus pyogenes serotype M1, UniProt P10520); assay: viability-normalized secreted streptokinase activity reduction – plasminogen activation absorbance, OD405, dose response (AID 1914); format: functional, Streptococcus pyogenes M1 GAS;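 note: secreted streptokinase activity via plasminogen activation per viability signal from cell pellet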
T1 sequence (P10520 whole entry): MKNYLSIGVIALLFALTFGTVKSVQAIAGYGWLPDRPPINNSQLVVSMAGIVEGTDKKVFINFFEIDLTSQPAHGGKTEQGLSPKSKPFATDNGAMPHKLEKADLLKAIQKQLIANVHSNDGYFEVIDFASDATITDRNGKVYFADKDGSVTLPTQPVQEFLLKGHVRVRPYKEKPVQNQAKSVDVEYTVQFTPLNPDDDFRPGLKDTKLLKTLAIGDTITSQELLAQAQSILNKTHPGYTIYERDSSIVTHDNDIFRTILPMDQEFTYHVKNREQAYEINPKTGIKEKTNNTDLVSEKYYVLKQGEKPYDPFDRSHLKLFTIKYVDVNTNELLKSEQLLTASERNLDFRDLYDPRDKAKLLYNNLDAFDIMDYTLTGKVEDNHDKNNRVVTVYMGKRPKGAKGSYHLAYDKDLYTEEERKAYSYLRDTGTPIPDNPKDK

[2] = system: Streptococcus sp. 'group A'; assay: Streptococcus pyogenes SK(-)GAS viability under kanamycin – luminescence, BacTiterGlo, confirmation, counter-screen for streptokinase expression inhibitor project, dose response (AID 1900); format: functional, organism-based
Fatty acid synthase [3] = molecular target: T2, Fatty acid synthase (Homo sapiens, UniProt P49327); assay: inhibition of human FAS-TE enzyme activity – biochemical, endpoint fluorescence intensity, uHTS hits, dose response (AID 624327); format: functional;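 note: fluorescence from hydrolysis of an O-methyl fluorescein acyl ester substrate by the enzyme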
Fatty acid synthase [4] = molecular target: T2, Fatty acid synthase; assay: inhibition of human FAS-TE enzyme activity – biochemical, kinetic fluorescence intensity, dose response (AID 624326); format: functional;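 note: rate of fluorescence rise from hydrolysis of a fluorogenic O-methyl fluorescein ester substrate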
[5] = molecular target: T3, Sentrin-specific protease 8 (Homo sapiens, UniProt Q96LD8); format: functional;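 note: luminescence read-out of SENP8 inhibition, dose-response confirmation following an ultra-high-throughput screen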
T3 sequence (Q96LD8 whole entry): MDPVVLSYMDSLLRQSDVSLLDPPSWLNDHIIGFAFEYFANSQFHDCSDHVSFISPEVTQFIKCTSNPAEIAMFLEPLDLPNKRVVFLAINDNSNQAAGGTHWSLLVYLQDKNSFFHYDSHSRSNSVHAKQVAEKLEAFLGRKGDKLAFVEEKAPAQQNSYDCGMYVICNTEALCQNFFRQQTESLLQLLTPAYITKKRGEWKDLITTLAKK

[6] = molecular target: T4, Sentrin-specific protease 6 (Homo sapiens, UniProt Q9GZR1); format: functional;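 note: Luminescence-based dose-response confirmatory assay of SENP6 inhibition, following up an ultra-high-throughput screen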
T4 sequence (Q9GZR1 whole entry): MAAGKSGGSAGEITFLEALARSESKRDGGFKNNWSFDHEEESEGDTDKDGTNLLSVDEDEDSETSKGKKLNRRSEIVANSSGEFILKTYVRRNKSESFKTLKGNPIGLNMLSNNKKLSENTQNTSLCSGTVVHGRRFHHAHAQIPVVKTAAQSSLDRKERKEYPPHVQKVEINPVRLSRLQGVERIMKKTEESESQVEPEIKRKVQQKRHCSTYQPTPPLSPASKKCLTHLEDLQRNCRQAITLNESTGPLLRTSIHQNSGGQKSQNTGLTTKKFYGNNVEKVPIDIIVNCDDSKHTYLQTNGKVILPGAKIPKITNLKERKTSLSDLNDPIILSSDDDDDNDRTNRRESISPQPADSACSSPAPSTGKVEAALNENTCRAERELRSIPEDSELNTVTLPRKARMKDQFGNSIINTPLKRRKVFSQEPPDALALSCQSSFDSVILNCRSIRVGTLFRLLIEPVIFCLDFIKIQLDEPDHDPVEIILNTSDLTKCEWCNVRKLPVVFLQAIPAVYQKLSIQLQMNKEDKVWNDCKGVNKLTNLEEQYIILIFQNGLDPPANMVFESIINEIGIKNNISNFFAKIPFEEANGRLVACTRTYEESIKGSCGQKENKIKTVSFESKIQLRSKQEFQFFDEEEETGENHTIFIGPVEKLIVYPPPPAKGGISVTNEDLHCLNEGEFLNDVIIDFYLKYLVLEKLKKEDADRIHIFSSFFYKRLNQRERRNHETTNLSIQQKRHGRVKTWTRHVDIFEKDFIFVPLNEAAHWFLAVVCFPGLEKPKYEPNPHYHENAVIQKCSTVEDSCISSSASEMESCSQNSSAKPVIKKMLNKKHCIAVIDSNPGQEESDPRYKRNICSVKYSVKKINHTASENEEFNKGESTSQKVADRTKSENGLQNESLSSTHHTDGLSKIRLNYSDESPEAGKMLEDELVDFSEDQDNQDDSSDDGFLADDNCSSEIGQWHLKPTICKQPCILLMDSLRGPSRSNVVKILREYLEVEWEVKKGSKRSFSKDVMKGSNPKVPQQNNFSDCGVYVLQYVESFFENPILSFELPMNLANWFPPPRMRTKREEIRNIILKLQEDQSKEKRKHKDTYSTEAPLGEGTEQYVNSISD

Caspase-3 = molecular target: T5, Caspase-3 (Homo sapiens, UniProt P42574); format: functional;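 note: Dose-response selectivity test against caspase-3 for candidate inhibitors of sentrin-specific proteases (SENPs)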
T5 sequence (P42574 whole entry): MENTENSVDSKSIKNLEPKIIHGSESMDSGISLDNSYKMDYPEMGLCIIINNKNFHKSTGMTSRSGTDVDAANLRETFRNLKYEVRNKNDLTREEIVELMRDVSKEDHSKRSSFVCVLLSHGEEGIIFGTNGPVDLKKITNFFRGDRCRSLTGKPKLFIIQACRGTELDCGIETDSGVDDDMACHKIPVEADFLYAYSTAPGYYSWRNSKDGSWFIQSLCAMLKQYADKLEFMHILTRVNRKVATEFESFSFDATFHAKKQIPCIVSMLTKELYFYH

[7] = molecular target: T6, Sentrin-specific protease 7 (Homo sapiens, UniProt Q9BQF6); format: functional;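 note: Luminescence-based dose-response confirmation of ultra-high-throughput screening hits, measuring inhibition of SENP7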
T6 sequence (Q9BQF6 whole entry): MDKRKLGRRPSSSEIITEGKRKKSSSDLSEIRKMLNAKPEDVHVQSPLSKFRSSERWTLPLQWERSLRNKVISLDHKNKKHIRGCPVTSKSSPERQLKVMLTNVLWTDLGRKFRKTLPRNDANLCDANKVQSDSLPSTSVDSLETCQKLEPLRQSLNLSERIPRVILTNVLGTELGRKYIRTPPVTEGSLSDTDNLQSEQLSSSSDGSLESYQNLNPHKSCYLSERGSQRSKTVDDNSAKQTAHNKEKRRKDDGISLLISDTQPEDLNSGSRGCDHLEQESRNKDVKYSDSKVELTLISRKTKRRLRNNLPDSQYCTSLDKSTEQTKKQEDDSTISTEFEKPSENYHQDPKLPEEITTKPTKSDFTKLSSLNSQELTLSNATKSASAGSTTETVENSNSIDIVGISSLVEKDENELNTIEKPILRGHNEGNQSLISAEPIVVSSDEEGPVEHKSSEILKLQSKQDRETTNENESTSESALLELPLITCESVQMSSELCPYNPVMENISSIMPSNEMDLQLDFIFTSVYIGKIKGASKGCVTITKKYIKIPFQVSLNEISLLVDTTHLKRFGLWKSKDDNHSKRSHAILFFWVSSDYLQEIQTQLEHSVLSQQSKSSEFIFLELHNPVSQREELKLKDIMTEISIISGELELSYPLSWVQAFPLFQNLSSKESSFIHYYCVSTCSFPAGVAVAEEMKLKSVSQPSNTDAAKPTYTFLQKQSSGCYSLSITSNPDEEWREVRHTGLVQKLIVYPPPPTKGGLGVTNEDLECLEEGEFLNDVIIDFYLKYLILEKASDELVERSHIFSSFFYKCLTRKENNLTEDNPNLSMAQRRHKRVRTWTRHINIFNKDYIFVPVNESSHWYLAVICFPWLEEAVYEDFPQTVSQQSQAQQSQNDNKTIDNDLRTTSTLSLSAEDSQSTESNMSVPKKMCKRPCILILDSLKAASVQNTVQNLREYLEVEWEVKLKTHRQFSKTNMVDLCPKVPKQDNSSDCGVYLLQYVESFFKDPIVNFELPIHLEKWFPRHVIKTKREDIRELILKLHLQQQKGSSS

Cytochrome P450 2C9 = Cytochrome P450 2C9 (Homo sapiens, UniProt P11712)
Cytochrome P450 3A4 = Cytochrome P450 3A4 (Homo sapiens, UniProt P08684);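 note: CYP3A4 tested as one member of a cytochrome P450 panel screen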
BJ [8] = assay: BJ-TERT fibroblast viability loss – cell-based, RAS-independent, luminescence, dose response (AID 1933); format: functional; conditions: Homo sapiens
BJ [9] = assay: BJ-TERT-LT-ST fibroblast viability loss – cell-based, RAS-independent, luminescence, dose response (AID 1935); format: functional; conditions: Homo sapiens;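 note: BJ fibroblasts immortalized with TERT plus LT and ST oncogenes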
BJ [10] = assay: cells; format: functional, cell-based; conditions: Homo sapiens
[11] = DRD fibroblast viability loss – cell-based, non-viral oncogenic, luminescence, dose response (AID 1934); format: functional; conditions: Homo sapiens
Cytochrome P450 2D6 = Cytochrome P450 2D6 (Homo sapiens, UniProt P10635);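 note: CYP2D6 member of a cytochrome P450 panel assay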
Cytochrome P450 1A2 = molecular target: T7, Cytochrome P450 1A2 (Homo sapiens, UniProt P05177);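 note: PubChem cytochrome P450 panel assay, CYP1A2 panel member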
T7 sequence (P05177 whole entry): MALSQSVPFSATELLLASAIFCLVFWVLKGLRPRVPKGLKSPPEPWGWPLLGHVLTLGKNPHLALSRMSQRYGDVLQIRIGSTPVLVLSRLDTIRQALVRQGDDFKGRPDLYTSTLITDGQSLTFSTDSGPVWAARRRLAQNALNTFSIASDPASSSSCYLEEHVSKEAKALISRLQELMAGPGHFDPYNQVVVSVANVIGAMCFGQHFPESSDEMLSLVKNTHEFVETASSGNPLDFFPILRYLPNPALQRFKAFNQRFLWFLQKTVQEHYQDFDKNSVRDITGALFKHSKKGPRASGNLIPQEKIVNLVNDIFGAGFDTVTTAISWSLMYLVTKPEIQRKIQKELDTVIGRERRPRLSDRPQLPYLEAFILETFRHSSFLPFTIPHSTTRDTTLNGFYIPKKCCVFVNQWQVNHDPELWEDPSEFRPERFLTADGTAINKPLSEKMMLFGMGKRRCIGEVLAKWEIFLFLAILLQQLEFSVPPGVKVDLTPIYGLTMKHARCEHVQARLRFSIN

Cytochrome P450 2C19 = Cytochrome P450 2C19 (Homo sapiens, UniProt P33261); assay: Cytochrome panel assay with activity outcomes. Panel member name: p450-cyp2c19 Compounds with AC50 equal or less than 10 uM are considered active; format: functional
Chain of Cytochrome P450 2C19 (P33261 whole entry): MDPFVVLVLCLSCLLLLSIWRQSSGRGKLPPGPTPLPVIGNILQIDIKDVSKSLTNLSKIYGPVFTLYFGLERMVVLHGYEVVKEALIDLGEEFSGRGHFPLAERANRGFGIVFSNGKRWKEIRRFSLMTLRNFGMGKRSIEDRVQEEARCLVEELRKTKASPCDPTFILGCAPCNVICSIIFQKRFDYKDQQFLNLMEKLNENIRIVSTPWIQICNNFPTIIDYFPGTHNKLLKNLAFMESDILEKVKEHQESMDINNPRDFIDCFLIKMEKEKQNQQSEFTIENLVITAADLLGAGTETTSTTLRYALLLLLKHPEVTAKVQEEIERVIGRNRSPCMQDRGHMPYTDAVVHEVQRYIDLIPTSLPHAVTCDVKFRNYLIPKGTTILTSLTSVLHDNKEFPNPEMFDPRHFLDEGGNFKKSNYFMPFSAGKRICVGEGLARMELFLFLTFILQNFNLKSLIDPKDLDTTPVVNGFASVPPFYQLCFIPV

T2 sequence (P49327 whole entry): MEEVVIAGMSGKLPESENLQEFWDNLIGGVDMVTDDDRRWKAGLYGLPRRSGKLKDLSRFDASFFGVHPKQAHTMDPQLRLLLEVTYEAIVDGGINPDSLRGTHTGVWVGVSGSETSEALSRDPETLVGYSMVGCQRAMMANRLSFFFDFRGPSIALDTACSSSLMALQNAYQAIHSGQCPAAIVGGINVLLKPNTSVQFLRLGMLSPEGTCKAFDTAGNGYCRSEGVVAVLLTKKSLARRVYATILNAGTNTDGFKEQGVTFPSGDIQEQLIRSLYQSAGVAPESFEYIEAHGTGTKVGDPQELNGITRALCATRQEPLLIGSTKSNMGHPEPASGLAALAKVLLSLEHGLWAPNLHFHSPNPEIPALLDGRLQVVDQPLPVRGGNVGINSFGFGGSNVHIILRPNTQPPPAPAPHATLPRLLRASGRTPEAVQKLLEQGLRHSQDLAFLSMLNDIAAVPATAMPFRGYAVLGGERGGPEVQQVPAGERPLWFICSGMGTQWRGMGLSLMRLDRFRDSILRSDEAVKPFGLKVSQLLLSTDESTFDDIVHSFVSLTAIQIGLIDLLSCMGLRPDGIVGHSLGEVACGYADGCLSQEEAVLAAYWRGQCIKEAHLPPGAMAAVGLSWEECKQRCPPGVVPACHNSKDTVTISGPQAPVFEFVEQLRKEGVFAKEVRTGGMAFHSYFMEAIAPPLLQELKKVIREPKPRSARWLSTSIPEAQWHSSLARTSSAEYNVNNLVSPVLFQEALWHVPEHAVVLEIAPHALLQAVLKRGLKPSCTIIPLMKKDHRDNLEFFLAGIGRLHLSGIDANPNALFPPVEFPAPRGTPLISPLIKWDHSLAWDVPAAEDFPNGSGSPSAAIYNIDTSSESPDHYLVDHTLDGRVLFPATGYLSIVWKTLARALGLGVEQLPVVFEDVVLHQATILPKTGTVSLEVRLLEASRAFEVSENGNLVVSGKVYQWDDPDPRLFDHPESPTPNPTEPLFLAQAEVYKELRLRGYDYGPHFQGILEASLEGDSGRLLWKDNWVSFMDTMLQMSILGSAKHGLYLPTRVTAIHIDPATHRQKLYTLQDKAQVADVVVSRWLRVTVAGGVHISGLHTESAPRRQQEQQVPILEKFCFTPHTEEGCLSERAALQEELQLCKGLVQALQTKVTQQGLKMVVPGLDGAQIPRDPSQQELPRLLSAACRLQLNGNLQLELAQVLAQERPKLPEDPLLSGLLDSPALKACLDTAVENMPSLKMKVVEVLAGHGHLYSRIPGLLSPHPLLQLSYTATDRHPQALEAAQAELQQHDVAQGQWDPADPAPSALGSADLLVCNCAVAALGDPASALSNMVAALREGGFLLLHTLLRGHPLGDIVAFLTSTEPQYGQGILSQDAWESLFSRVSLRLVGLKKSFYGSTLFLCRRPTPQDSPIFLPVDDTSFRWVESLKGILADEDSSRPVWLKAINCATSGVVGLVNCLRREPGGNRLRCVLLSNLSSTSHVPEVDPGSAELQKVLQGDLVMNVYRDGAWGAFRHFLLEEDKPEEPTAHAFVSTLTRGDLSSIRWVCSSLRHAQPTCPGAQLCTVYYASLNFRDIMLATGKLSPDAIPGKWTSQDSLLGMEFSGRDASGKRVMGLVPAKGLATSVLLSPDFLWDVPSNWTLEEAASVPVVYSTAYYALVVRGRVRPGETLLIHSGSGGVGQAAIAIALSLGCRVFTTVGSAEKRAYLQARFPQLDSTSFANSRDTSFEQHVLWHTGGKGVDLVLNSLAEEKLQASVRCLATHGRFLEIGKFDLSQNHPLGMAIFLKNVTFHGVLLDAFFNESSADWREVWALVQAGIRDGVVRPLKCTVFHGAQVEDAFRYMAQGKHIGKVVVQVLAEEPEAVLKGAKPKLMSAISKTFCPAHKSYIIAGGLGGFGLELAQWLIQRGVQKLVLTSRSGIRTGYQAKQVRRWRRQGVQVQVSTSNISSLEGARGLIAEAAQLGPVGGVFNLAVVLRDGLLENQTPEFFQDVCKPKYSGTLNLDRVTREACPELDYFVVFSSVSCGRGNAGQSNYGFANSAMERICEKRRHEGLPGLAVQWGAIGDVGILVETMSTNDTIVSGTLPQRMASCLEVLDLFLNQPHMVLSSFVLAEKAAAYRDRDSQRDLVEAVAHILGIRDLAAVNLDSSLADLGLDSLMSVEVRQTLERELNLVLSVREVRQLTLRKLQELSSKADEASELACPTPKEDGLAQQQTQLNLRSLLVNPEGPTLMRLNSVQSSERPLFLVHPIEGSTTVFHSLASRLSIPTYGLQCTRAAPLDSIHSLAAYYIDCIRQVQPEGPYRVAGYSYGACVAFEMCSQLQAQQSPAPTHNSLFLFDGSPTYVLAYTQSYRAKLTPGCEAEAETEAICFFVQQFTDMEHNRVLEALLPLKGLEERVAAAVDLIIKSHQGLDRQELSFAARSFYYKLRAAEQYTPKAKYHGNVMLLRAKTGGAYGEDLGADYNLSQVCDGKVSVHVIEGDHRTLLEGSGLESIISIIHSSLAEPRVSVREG
Chain of Cytochrome P450 2C9 (P11712 whole entry): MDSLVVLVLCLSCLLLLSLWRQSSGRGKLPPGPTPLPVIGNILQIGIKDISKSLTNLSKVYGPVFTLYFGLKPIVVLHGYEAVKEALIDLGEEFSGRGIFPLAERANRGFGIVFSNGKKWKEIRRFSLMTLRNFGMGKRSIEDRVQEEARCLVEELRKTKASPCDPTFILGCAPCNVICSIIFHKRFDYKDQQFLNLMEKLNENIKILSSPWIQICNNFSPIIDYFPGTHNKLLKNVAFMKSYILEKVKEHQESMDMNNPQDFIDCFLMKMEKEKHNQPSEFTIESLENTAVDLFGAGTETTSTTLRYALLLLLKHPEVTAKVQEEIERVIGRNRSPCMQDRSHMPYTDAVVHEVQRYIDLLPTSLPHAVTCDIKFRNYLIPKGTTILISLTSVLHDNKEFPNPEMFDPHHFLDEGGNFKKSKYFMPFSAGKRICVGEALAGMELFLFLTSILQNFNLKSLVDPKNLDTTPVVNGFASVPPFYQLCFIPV
Chain of Cytochrome P450 3A4 (P08684 whole entry): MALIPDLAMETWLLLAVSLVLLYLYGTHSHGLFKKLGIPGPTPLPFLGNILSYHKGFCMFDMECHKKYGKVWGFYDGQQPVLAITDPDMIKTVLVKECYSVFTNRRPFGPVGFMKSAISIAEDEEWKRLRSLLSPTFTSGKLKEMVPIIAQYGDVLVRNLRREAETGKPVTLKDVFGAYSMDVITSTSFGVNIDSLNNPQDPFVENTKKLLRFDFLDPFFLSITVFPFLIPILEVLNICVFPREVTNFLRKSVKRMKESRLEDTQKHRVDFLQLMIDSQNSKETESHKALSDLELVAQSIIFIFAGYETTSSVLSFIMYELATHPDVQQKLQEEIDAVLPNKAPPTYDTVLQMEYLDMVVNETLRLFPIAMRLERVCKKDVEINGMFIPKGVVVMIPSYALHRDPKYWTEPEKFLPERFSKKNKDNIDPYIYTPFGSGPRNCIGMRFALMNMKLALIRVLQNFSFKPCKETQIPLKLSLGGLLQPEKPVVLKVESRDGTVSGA
Chain of Cytochrome P450 2D6 (P10635 whole entry): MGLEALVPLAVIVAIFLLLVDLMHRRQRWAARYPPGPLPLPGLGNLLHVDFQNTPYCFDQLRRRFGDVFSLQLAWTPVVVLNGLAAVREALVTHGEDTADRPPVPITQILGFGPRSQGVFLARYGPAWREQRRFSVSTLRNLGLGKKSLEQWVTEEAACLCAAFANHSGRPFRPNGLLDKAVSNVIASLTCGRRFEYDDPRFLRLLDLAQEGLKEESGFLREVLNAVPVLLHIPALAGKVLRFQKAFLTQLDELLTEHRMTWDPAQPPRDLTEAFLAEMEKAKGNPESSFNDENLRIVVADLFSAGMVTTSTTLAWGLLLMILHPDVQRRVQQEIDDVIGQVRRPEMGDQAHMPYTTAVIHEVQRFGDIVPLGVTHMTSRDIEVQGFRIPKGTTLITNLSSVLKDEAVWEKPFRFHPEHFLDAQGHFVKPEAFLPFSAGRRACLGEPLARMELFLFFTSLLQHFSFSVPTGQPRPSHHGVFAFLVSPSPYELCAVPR

O=C(c1ccc2c3n(nc2c1)-c1ccccc1CO3)N1CCCCC1
EC50 (Streptococcus): 30.6 µM (active) | EC50 (BJ [1]): > 133 µM (inactive) | EC50 (Streptokinase A): > 150 µM (not active) | EC50 [2]: 11.9 µM (active)

Cc1ccc([N+](=O)[O-])cc1S(=O)(=O)Nc1ccc(-c2ccc(N3CCCC3)nn2)cc1
IC50 (Fatty acid synthase [3]): 13.7 µM (active) | IC50 (Fatty acid synthase [4]): 8.02 µM (active)

CCOC(=O)c1c(NC(=O)CSc2nnc(-c3ccccc3C)n2C)sc(C(C)=O)c1C
IC50 (Fatty acid synthase [3]): 9.71 µM (active) | IC50 (Fatty acid synthase [4]): 3.03 µM (active)

CCOC(=O)c1ccc(-c2ccc3c(c2)CCC3)nc1C
IC50 [5]: 45.2 µM (active) | IC50 [6]: 26.3 µM (active) | IC50 (Caspase-3): 22.8 µM (active) | IC50 [7]: 6.3 µM (active)

Cc1ccc(NC(S)=NCCN2CCOCC2)cc1C
AC50 (Cytochrome P450 2C9): inconclusive | AC50 (Cytochrome P450 3A4): 15.8 µM (inconclusive)

O=C(CCCCCCCCCCC(=O)NCc1cccnc1)NCc1cccnc1
EC50 (BJ [8]): > 75 µM (not active) | EC50 (BJ [1]): > 133 µM (inactive) | EC50 (BJ [9]): > 150 µM (inconclusive) | EC50 (BJ [10]): 1.85 µM (inconclusive) | EC50 [11]: > 150 µM (not active)

COc1ccccc1-c1cc(C(=O)Nc2cc(C)n(Cc3ccc(Cl)cc3)n2)no1
AC50 (Cytochrome P450 2D6): 0.891 µM (inconclusive) | AC50 (Cytochrome P450 1A2): 0.794 µM (inconclusive) | AC50 (Cytochrome P450 2C9): inconclusive

CC(C)Cn1c(SCC(=O)c2c(N)n(C)c(=O)n(C)c2=O)nc2ccccc21
AC50 (Cytochrome P450 1A2): 25.1 µM (inconclusive) | AC50 (Cytochrome P450 2C9): inconclusive

O=C(Nc1nnc(C(F)(F)F)s1)c1ccc(Br)s1
IC50 [5]: 24.1 µM (active) | IC50 [6]: 22.6 µM (active) | IC50 (Caspase-3): 18.8 µM (active) | IC50 [7]: 15.5 µM (active)

COc1cc(CNc2nc(C)c([N+](=O)[O-])c(C)c2C#N)cc(OC)c1OC
IC50 (Fatty acid synthase [3]): 61.3 µM (inactive) | IC50 (Fatty acid synthase [4]): 80 µM (inactive)

CC1CCc2c(sc3nc(CN4CCN(S(=O)(=O)c5ccccc5[N+](=O)[O-])CC4)nc(O)c23)C1 (stereo unspecified)
IC50 (Fatty acid synthase [3]): 4.32 µM (active) | IC50 (Fatty acid synthase [4]): 4.55 µM (active)

Cc1ccc(C(=O)Nc2ccc3c(c2)OCO3)cc1Cl
IC50 [5]: > 100 µM (inactive) | IC50 [6]: > 100 µM (inactive) | IC50 (Caspase-3): 13.4 µM (active) | IC50 [7]: 5.94 µM (active)

CC(C)(C)NC(=O)NC(=O)COC(=O)C1CCN(S(=O)(=O)c2cccs2)CC1
IC50 (Fatty acid synthase [3]): 12.8 µM (active) | IC50 (Fatty acid synthase [4]): 9.75 µM (active)

CCOc1ccc(/C=C2\CCc3ccccc3C2=O)cc1
IC50 [5]: 1.88 µM (active) | IC50 [6]: 1.42 µM (active) | IC50 (Caspase-3): 1.5 µM (active) | IC50 [7]: 1.22 µM (active)

O=C(Cc1ccccc1)N/N=C/C=C/c1cccc([N+](=O)[O-])c1
AC50 (Cytochrome P450 1A2): 15.8 µM (inconclusive) | AC50 (Cytochrome P450 2C9): inconclusive | AC50 (Cytochrome P450 2C19): inconclusive

O=C(CCC(=O)Nc1ccc(F)cc1)N/N=C/c1cc([N+](=O)[O-])ccc1O
IC50 (Fatty acid synthase [3]): 22.6 µM (inactive) | IC50 (Fatty acid synthase [4]): 15.1 µM (active)

CC(C)Oc1ccc2c(=O)c(-c3ccccc3)coc2c1 [IPRIFLAVONE]
IC50 [5]: 94.8 µM (active) | IC50 [6]: 57.2 µM (active) | IC50 (Caspase-3): 19.7 µM (active) | IC50 [7]: 5.35 µM (active)
